The values that follow come from US20240309003A1, “HETEROCYCLIC COMPOUNDS AS TRIGGERING RECEPTOR EXPRESSED ON MYELOID CELLS 2 AGONISTS AND METHODS OF USE” (Vigil Neuroscience, Inc., priority 2021, published 2024).

In general, EC50 refers to the concentration that produces a half-maximal response. Higher therefore signals weaker potency.

T1 sequence (Q9NZC2 19-230): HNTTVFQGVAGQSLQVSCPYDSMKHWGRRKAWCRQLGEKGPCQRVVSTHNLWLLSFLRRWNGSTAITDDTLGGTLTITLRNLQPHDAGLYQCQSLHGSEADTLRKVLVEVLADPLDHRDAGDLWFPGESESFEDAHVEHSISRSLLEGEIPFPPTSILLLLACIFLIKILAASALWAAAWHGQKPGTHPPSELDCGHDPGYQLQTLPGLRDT
T1 sequence (O43914 22-113 partner): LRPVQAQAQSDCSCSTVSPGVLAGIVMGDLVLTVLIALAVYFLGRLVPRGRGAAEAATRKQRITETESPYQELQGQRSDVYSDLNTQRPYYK

The first assay has as its target T1, human TREM2 (Homo sapiens, UniProt Q9NZC2).
T1 construct: expressed in transfected cells; host or cells: HEK293T
In words: TREM2 agonist potency by cellular phosphorylation of Syk (AlphaLisa) in HEK293T-hTREM2 cells. It counts as cell-based. The settings on record: HEK293 cells expressing human TREM2 and DAP12, Table D. The gist of the method: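 Agonist EC50 from a variable-slope four-parameter fit of % activation, based on AlphaLisa phospho-Syk levels in lysates. Cells: HEK293T-hTREM2 (with DAP12), treated 45 min at room temperature with compound in assay buffer.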
(Alpha assays give light when donor and acceptor beads are brought close together.)
In turn, `COc1ccc([C@@H]2C[C@H](c3nc(C45CC(C(F)(F)F)(C4)C5)c4nc(C)c(C)nc4n3)CCO2)cn1` [Example 142, 2-((2S,4R)-2-(6-methoxypyridin-3-yl)tetrahydro-2H-pyran-4-yl)-6,7-dimethyl-4-(3-(trifluoromethyl)bicyclo[1.1.1]pentan-1-yl)pteridine] gave a concentration for a half-maximal effect (EC50) of 50 to 500 nM.
On the same count and under the same terms, the same measure for `[2H]C1([2H])C[C@H](c2nc(-c3ccc(F)cc3F)c3nc(C)c(C)nc3n2)C[C@H](c2cnn(C3CC3)c2)O1` [Example 171, 2-((2R,4S)-2-(1-cyclopropyl-1H-pyrazol-4-yl)tetrahydro-2H-pyran-4-yl-6,6-d2)-4-(2,4-difluorophenyl)-6,7-dimethylpteridine]: 50 to 500 nM.
The same measure, in the same setting: the same measure for `Cc1cc2c(-c3ccc(Cl)cc3F)nc([C@@H]3CCO[C@@H](c4cnn(C5CC5)c4)C3)nc2nc1C` [Example 216, 4-(4-chloro-2-fluorophenyl)-2-((2R,4R)-2-(1-cyclopropyl-1H-pyrazol-4-yl)tetrahydro-2H-pyran-4-yl)-6,7-dimethylpyrido[2,3-d]pyrimidine]: under 50 nM; for `Cc1nc2nc([C@H]3CCO[C@@H](c4cnn(C5CC5)c4)C3)cc(-c3ccc(Cl)cc3F)c2nc1C` [Example 224, 8-(4-chloro-2-fluorophenyl)-6-((2R,4S)-2-(1-cyclopropyl-1H-pyrazol-4-yl)tetrahydro-2H-pyran-4-yl)-2,3-dimethylpyrido[2,3-b]pyrazine]: under 50 nM.
On to `Cc1cc([C@H]2C[C@@H](c3nc(-c4cc(F)c(Cl)c(F)c4)c4nc(C)c(C)nc4n3)CCO2)ccn1` (racemic) [Example 84, 4-(4-chloro-3,5-difluoro-phenyl)-6,7-dimethyl-2-[(2R,4S)-2-(2-methyl-4-pyridyl)tetrahydropyran-4-yl]pteridine], for which the EC50 is under 50 nM.
The same measure, in the same setting: for `Cc1ccc2c(C34CC(C(F)(F)F)(C3)C4)nc([C@H]3CCO[C@@H](c4cnn(C5CC5)c4)C3)nc2n1` [Example 221, 2-((2R,4S)-2-(1-cyclopropyl-1H-pyrazol-4-yl)tetrahydro-2H-pyran-4-yl)-7-methyl-4-(3-(trifluoromethyl)bicyclo[1.1.1]pentan-1-yl)pyrido[2,3-d]pyrimidine] the value was under 50 nM; for `Cc1cc([C@@H]2C[C@H](c3nc(-c4ccc(Cl)c(F)c4F)c4ncc(C)nc4n3)CCO2)ccn1` [Example 131, 4-(4-chloro-2,3-difluorophenyl)-7-methyl-2-((2S,4R)-2-(2-methylpyridin-4-yl)tetrahydro-2H-pyran-4-yl)pteridine], 500 to 3000 nM; for `Cc1nc2nc([C@@H]3CCO[C@H](c4cccc(=O)n4C)C3)nc(-c3ccc(F)cc3F)c2nc1C` [Example 202], 500 to 3000 nM.
`Cc1nc2nc([C@@H]3CCO[C@H](c4cnn(C5CC(F)C5)c4)C3)nc(C34CC(C(F)(F)F)(C3)C4)c2nc1C` (stereo in doubt) [Example 134, 2-((2S,4R)-2-(1-(3-fluorocyclobutyl)-1H-pyrazol-4-yl)tetrahydro-2H-pyran-4-yl)-6,7-dimethyl-4-(3-(trifluoromethyl)bicyclo[1.1.1]pentan-1-yl)pteridine]: the EC50 is under 50 nM.
Same read-out and setting: the same measure for `Cc1nc2nc([C@@H]3CCO[C@H](c4cnn(C5CCC5)c4)C3)nc(-c3ccc(F)cc3F)c2nc1C` [Example 147, 2-((2S,4R)-2-(1-cyclobutyl-1H-pyrazol-4-yl)tetrahydro-2H-pyran-4-yl)-4-(2,4-difluorophenyl)-6,7-dimethylpteridine]: 50 to 500 nM; for `[2H]C1([2H])C[C@@H](c2nc(-c3ccc(F)cc3F)c3nc(C)c(C)nc3n2)C[C@@H](c2cnn(C3CC3)c2)O1` (single isomer, unassigned) [Example 170]: under 50 nM.
On the same count and under the same terms, the same measure for `Cc1nc2nc([C@H]3CCO[C@@H](c4cnn(C5CC(F)C5)c4)C3)nc(C34CC(C(F)(F)F)(C3)C4)c2nc1C` (stereo in doubt) [Example 135, 2-((2R,4S)-2-(1-(3-fluorocyclobutyl)-1H-pyrazol-4-yl)tetrahydro-2H-pyran-4-yl)-6,7-dimethyl-4-(3-(trifluoromethyl)bicyclo[1.1.1]pentan-1-yl)pteridine]: 50 to 500 nM; for `[2H]C([2H])([2H])c1nc2nc([C@H]3CCO[C@@H](c4ccnc(C)c4)C3)nc(-c3ccc(Cl)c(F)c3F)c2nc1C([2H])([2H])[2H]` [Example 137, 4-(4-chloro-2,3-difluorophenyl)-6,7-bis(methyl-d3)-2-((2R,4S)-2-(2-methylpyridin-4-yl)tetrahydro-2H-pyran-4-yl)pteridine]: under 50 nM; for `Cc1nc2nc([C@H]3CCO[C@@H](c4cnn(C5CC5)n4)C3)nc(-c3ccc(F)cc3F)c2nc1C` [Example 155, 2-((2R,4S)-2-(2-cyclopropyl-2H-1,2,3-triazol-4-yl)tetrahydro-2H-pyran-4-yl)-4-(2,4-difluorophenyl)-6,7-dimethylpteridine]: 50 to 500 nM.

The same assay, now with this note: HEK293 cells expressing human TREM2 and DAP12, Table D-2.
The molecule `Cc1nc2nc(C3CCO[C@@H](c4cnn(C5CC5)c4)C3)nc([C@H]3C[C@H](C(F)(F)F)C3)c2nc1C` (stereo partly drawn) [Example I-1432, 2-[(2R)-2-(1-cyclopropylpyrazol-4-yl)tetrahydropyran-4-yl]-6,7-dimethyl-4-[3-(trifluoromethyl)cyclobutyl]pteridine] came in with a 50% effective concentration (EC50) of under 50 nM.
On to `Cc1nc2nc(N3C[C@@H](C)O[C@@H](c4cnn(C5CC5)c4)C3)cc(-c3ccc(Cl)cc3F)c2nc1C` [Example I-1076, (2S,6R)-4-[8-(4-chloro-2-fluoro-phenyl)-2,3-dimethyl-pyrido[2,3-b]pyrazin-6-yl]-2-(1-cyclopropylpyrazol-4-yl)-6-methyl-morpholine], for which the 50% effective concentration (EC50) is under 50 nM.
`Cc1nc2nc(C3CCO[C@@H](c4cnn(C5CC5)c4)C3)nc(C3CC4(C3)CC(F)(F)C4)c2nc1C` (stereo partly drawn) [Example I-1582, 2-[(2R)-2-(1-cyclopropylpyrazol-4-yl)tetrahydropyran-4-yl]-4-(2,2-difluorospiro[3.3]heptan-6-yl)-6,7-dimethyl-pteridine] had a 50% effective concentration (EC50) of under 50 nM.
Same read-out and setting: for `Cc1nc2nc([C@H]3CCO[C@@H](c4cnn(C5CC5)c4)C3)nc(-c3ccc(C(C)C)cc3F)c2nc1C` [Example I-1192] the value was 500 to 3000 nM; for `Cc1nc2nc([C@H]3CCO[C@@H](c4cnn(C5CC5)c4)C3)nc(-c3ccc(Cl)cc3F)c2nc1OCCF` [Example I-1283, 4-(4-chloro-2-fluoro-phenyl)-2-[(2R,4S)-2-(1-cyclopropylpyrazol-4-yl)tetrahydropyran-4-yl]-6-(2-fluoroethoxy)-7-methyl-pteridine], under 50 nM; for `Cc1nc2c(-c3ccc(C(F)(F)F)cc3F)cn([C@H]3CCO[C@@H](c4cnn(C5CC5)c4)C3)c(=O)c2nc1C` [Example I-1567, 6-[(2R,4S)-2-(1-cyclopropyl-1H-pyrazol-4-yl)tetrahydro-2H-pyran-4-yl]-8-[2-fluoro-4-(trifluoromethyl)phenyl]-2,3-dimethylpyrido[3,4-b]pyrazin-5(6H)-one], 3000 to 100000 nM.
In turn, `COCn1cc([C@H]2CN(c3nc(-c4ccc(F)cc4F)c4nc(C)c(C)nc4n3)C[C@@H](C3CC3)O2)cn1` [Example I-1736, (2R,6S)-2-cyclopropyl-4-[4-(2,4-difluorophenyl)-6,7-dimethyl-pteridin-2-yl]-6-[1-(methoxymethyl)pyrazol-4-yl]morpholine] displayed a concentration for a half-maximal effect (EC50) of under 50 nM.
Same read-out and setting: for `CCCc1nc2c(-c3ccc(F)cc3F)nc(N3C[C@@H](C)O[C@@H](c4cnn(C5CC5)c4)C3)nc2nc1C` [Example I-1293] the value was under 50 nM; for `Cc1nc2nc(N3C[C@@H](C)O[C@@H](c4cnn(C5CC5)c4)C3)nc([C@H]3C[C@H](C(F)(F)F)C3)c2nc1C` [Example I-1365, (2S,6R)-2-(1-cyclopropylpyrazol-4-yl)-4-[6,7-dimethyl-4-[3-(trifluoromethyl)cyclobutyl]pteridin-2-yl]-6-methyl-morpholine], under 50 nM.
The same measure, in the same setting: for `COCn1cc([C@H]2CN(c3nc(-c4ccc(F)cc4F)c4nc(C)c(C)nc4n3)C[C@@H](C)O2)cn1` [Example I-1441, (2S,6R)-4-[4-(2,4-difluorophenyl)-6,7-dimethyl-pteridin-2-yl]-2-[1-(methoxymethyl)pyrazol-4-yl]-6-methyl-morpholine] the value was under 50 nM.
The same measure, in the same setting: for `Cc1nc2nc(N3C[C@@H](C)O[C@@H](c4cnn(C5CC5)c4)C3)nc(-c3ccc4c(c3F)CCC4(F)F)c2nc1C` [Example I-1485, (2S,6R)-2-(1-cyclopropylpyrazol-4-yl)-4-[6,7-dimethyl-4-(1,1,4-trifluoroindan-5-yl)pteridin-2-yl]-6-methyl-morpholine] the value was under 50 nM; for `Cc1nc2nc(N3C[C@@H](C)O[C@@H](c4ccn(C5CC5)n4)C3)nc(-c3ccc(F)cc3F)c2nc1C` [Example I-1265, (2R,6R)-2-(1-cyclopropylpyrazol-3-yl)-4-[4-(2,4-difluorophenyl)-6,7-dimethyl-pteridin-2-yl]-6-methyl-morpholine], 50 to 500 nM.
Molecule `Cc1nc2cc([C@H]3CCO[C@@H](c4cnn(C5CC5)c4)C3)nc(-c3ccc(F)cc3F)c2nc1COC(F)F` [Example I-1490, 7-((2R,4S)-2-(1-cyclopropyl-1H-pyrazol-4-yl)tetrahydro-2H-pyran-4-yl)-3-((difluoromethoxy)methyl)-5-(2,4-difluorophenyl)-2-methylpyrido[3,4-b]pyrazine] displayed an EC50 of 3000 to 100000 nM.
`Cc1nc2nc(N3C[C@@H](C4CC4)O[C@@H](c4cnn(C(F)F)c4)C3)nc(-c3ccc(F)cc3F)c2nc1C` (stereo in doubt) [Example I-1702, (2R,6S)-2-cyclopropyl-6-[1-(difluoromethyl)pyrazol-4-yl]-4-[4-(2,4-difluorophenyl)-6,7-dimethyl-pteridin-2-yl]morpholine] came in with an EC50 of 50 to 500 nM.
Consider `Cc1nc2nc([C@H]3CCO[C@@H](c4cnn(C5CC5)c4)C3)nc(-c3ccc(C(F)(F)F)c(F)c3F)c2nc1C` (stereo in doubt) [Example I-1588, 4-[2,3-difluoro-4-(trifluoromethyl)phenyl]-6,7-dimethyl-2-[(2R,4S)-2-(1-cyclopropylpyrazol-4-yl)tetrahydropyran-4-yl]pteridine], for which the concentration giving a half-maximal response (EC50) was under 50 nM.
